Experimental data: patent US8519128B2, “Pyripyropene derivatives having an ACAT2-inhibiting activity” (The Kitasato Institute, priority 2007, dated 2013)

Target: T1, ACAT 2 (Mus musculus, UniProt O88908)
T1 construct: The source of ACAT 2 enzyme used was a membrane fraction derived from mouse liver microsome; from tissue; host or cells: mouse liver (microsome fraction)
T1 sequence (O88908 1-525): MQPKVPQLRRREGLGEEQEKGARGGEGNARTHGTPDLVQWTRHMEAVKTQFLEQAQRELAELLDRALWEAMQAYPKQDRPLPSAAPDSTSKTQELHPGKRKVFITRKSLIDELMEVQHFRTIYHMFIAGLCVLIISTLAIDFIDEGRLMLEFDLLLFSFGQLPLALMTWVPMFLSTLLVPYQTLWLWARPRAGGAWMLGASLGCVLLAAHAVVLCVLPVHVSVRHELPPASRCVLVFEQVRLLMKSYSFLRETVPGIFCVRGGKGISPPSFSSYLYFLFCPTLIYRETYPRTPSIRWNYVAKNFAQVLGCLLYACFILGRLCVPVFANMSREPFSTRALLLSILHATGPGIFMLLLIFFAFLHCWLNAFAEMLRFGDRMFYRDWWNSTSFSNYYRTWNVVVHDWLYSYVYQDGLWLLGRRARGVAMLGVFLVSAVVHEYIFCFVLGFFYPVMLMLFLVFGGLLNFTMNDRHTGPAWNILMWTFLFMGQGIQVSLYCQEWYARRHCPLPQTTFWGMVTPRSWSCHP
Assay: ACAT-inhibiting activity, mouse liver microsome membrane fraction, [14C]oleoyl-CoA
Assay type: biochemical
Details: for IC50: mouse liver microsome, 5 minutes at 37° C.; for Specific activity: (inhibitory activity of test compound)/(inhibitory activity of pyripyropene A): relative to pyripyropene A
Description: The source of ACAT 2 enzyme used was a membrane fraction derived from mouse liver microsome. Mouse liver was homogenized in buffer solution A (50 mM Tris-HCl (pH 7.8), 1 mM ethylenediamine tetraacetate, and 1 mM phenylmethanesulfonyl fluoride) using a homogenizer of the Potter type (Tokyo-RIKO). The homogenate was centrifuged at 12000×g, and the supernatant was ultracentrifuged at 100000×g. The sediment was taken as a microsome fraction, and this fraction was adjusted to have a protein concentration of 5 mg/ml using buffer solution A.
The chloroform layer was evaporated to dryness and was used to spot a thin layer chromatography plate (silica gel plate, Merck, 0.5 mm thickness). Elution for separation was carried out using a solvent of hexane/diethyl ether/acetic acid (70:30:1, v/v).

## CC(=O)OCC1(C)C2C[C@H](OC(=O)c3cccc(Br)c3)[C@@]3(C)Oc4cc(-c5cccnc5)oc(=O)c4[C@H](O)C3[C@@]2(C)CC[C@@H]1OC(C)=O (stereo partly shown) [PRD 026, 7-m-bromobenzoyl-7-deacetylpyripyropene A]
  IC50: < 0.01 µM
  Specific activity: (inhibitory activity of test compound)/(inhibitory activity of pyripyropene A): ++++ (100 > specific activity > 50)

## CC(=O)OCC1(C)C2C[C@H](OC(=O)c3ccccc3)[C@@]3(C)Oc4cc(-c5cccnc5)oc(=O)c4[C@H](O)C3[C@@]2(C)CC[C@@H]1OC(C)=O (stereo partly shown) [PRD 027, 7-benzoyl-7-deacetylpyripyropene A]
  IC50: 0.01 to 0.1 µM
  Specific activity: (inhibitory activity of test compound)/(inhibitory activity of pyripyropene A): +++ (50 > specific activity > 10)

## CC(=O)OCC1(C)C2C[C@H](OC(=O)c3ccccc3F)[C@@]3(C)Oc4cc(-c5cccnc5)oc(=O)c4[C@H](O)C3[C@@]2(C)CC[C@@H]1OC(C)=O (stereo partly shown) [PRD 028, 7-o-fluorobenzoyl-7-deacetylpyripyropene A]
  IC50: 0.01 to 0.1 µM
  Specific activity: (inhibitory activity of test compound)/(inhibitory activity of pyripyropene A): +++ (50 > specific activity > 10)

## CC(=O)OCC1(C)C2C[C@H](OC(=O)c3ccc([N+](=O)[O-])cc3)[C@@]3(C)Oc4cc(-c5cccnc5)oc(=O)c4[C@H](O)C3[C@@]2(C)CC[C@@H]1OC(C)=O (stereo partly shown) [PRD 029, 7-p-nitrobenzoyl-7-deacetylpyripyropene A]
  IC50: 0.01 to 0.1 µM
  Specific activity: (inhibitory activity of test compound)/(inhibitory activity of pyripyropene A): + (5 > specific activity > 1)

## CC(=O)OCC1(C)C2C[C@H](OC(=O)c3ccc(N=[N+]=[N-])cc3)[C@@]3(C)Oc4cc(-c5cccnc5)oc(=O)c4[C@H](O)C3[C@@]2(C)CC[C@@H]1OC(C)=O (stereo partly shown) [PRD 030, 7-O-p-azidebenzoyl-7-deacetylpyripyropene A]
  IC50: 0.01 to 0.1 µM
  Specific activity: (inhibitory activity of test compound)/(inhibitory activity of pyripyropene A): ++ (10 > specific activity > 5)

## CC(=O)OCC1(C)C2C[C@H](OC(=O)c3ccc(O)cc3)[C@@]3(C)Oc4cc(-c5cccnc5)oc(=O)c4[C@H](O)C3[C@@]2(C)CC[C@@H]1OC(C)=O (stereo partly shown) [PRD 031, 7-p-hydroxybenzoyl-7-deacetylpyripyropene A]
  IC50: 0.1 to 1 µM
  Specific activity: (inhibitory activity of test compound)/(inhibitory activity of pyripyropene A): + (5 > specific activity > 1)

## CC(=O)OCC1(C)C2C[C@H](OC(=O)c3ccc(N)cc3)[C@@]3(C)Oc4cc(-c5cccnc5)oc(=O)c4[C@H](O)C3[C@@]2(C)CC[C@@H]1OC(C)=O (stereo partly shown) [PRD 032, 7-p-aminobenzoyl-7-deacetylpyripyropene A]
  IC50: 0.1 to 1 µM
  Specific activity: (inhibitory activity of test compound)/(inhibitory activity of pyripyropene A): + (5 > specific activity > 1)

## CC(=O)OCC1(C)C2C[C@H](OC(=O)c3ccc(-c4ccccc4)cc3)[C@@]3(C)Oc4cc(-c5cccnc5)oc(=O)c4[C@H](O)C3[C@@]2(C)CC[C@@H]1OC(C)=O (stereo partly shown) [PRD 034, 7-p-biphenyl-4-carboxyl-7-deacetylpyripyropene A]
  IC50: 0.1 to 1 µM
  Specific activity: (inhibitory activity of test compound)/(inhibitory activity of pyripyropene A): + (5 > specific activity > 1)

## CC(=O)OCC1(C)C2C[C@H](OC(=O)c3cc4ccccc4s3)[C@@]3(C)Oc4cc(-c5cccnc5)oc(=O)c4[C@H](O)C3[C@@]2(C)CC[C@@H]1OC(C)=O (stereo partly shown) [PRD 035, 7-benzo[b]thiophene-2-carboxyl-7-deacetylpyripyropene A]
  IC50: 0.1 to 1 µM
  Specific activity: (inhibitory activity of test compound)/(inhibitory activity of pyripyropene A): + (5 > specific activity > 1)

## CC(=O)OCC1(C)C2C[C@H](OC(=O)c3ccc4c(c3)OC(F)(F)O4)[C@@]3(C)Oc4cc(-c5cccnc5)oc(=O)c4[C@H](O)C3[C@@]2(C)CC[C@@H]1OC(C)=O (stereo partly shown) [PRD 036, 7-2,2-difluorobenzo[d][1,3]dioxol-5-carboxyl-7-deacetylpyripyropene A]
  IC50: 0.01 to 0.1 µM
  Specific activity: (inhibitory activity of test compound)/(inhibitory activity of pyripyropene A): ++ (10 > specific activity > 5)

## CC(=O)OCC1(C)C2C[C@H](OC(=O)c3ccc4ccccc4c3)[C@@]3(C)Oc4cc(-c5cccnc5)oc(=O)c4[C@H](O)C3[C@@]2(C)CC[C@@H]1OC(C)=O (stereo partly shown) [PRD 037, 7-2-naphthoyl-7-deacetylpyripyropene A]
  IC50: 0.1 to 1 µM
  Specific activity: (inhibitory activity of test compound)/(inhibitory activity of pyripyropene A): + (5 > specific activity > 1)
